Measurements published in paper PMC7072648, “N-(2-Hydroxyphenyl)-1-[3-(2-oxo-2,3-dihydro-1H- benzimidazol-1-yl)propyl]piperidine-4-Carboxamide (D2AAK4), a Multi-Target Ligand of Aminergic GPCRs, as a Potential Antipsychotic” (Biomolecules, 2020).
Values joined by “and” are separate entries in the source; they are usually repeats but may differ in a detail not shown here. Equal values may be shown once.

Tests used:
human D1 receptor = human D1 receptor (Homo sapiens, UniProt P21728); assay: Radioligand binding assay at human D1 receptor; conditions: mean ± SEM, two independent experiments in duplicate; read-out: pKi hD1 (converted)
Procedure: (§1) Radioligand binding assays were performed on cell membrane preparations from cell lines stably expressing the human cloned receptors. […] Experimental conditions for binding assays at D1, D2, D3, 5-HT1A and 5-HT2A receptors have been previously reported. 0.7 nM [^3H]-SCH23390, 2 nM [^3H]-SB269970 (5-HT7), 2 nM [^3H]-Pyrilamine (H1) and 2 nM [^3H]-Pirenzepine (M1) were employed as radioligands. […] Affinity (equilibrium dissociation constant (Ki) and pKi (−logKi)) values were calculated as previously reported. Affinity values of reference compounds that were assayed in parallel to D2AAK4 as internal controls in the binding assays are given in Supplementary Figure S1 (legend).

human D2S receptor [1] = molecular target: T1, human D2S receptor (Homo sapiens, UniProt P14416); conditions: 10 µM compound versus 10 µM dopamine, cAMP assay; cited from earlier work
T1 construct: expressed in transfected cells

human D2S receptor [2] = molecular target: T1, human D2S receptor; assay: Functional assay of cAMP signaling at D2 receptors (CHO-K1 cells); type: cell-based
Procedure: Compound was initially assessed at 10 µM concentration either as agonist or as antagonist of 10 µM dopamine response. Dopamine (10 nM–1 mM) was used as reference agonist in these assays.

human D2S receptor [3] = molecular target: T1, human D2S receptor; assay: Radioligand binding assay at human D2 receptor; conditions: mean ± SEM, two independent experiments in duplicate; read-out: pKi hD2 (converted)
Procedure: Radioligand binding assays were performed on cell membrane preparations from cell lines stably expressing the human cloned receptors. Chinese hamster ovary K1 (CHO-K1) cell lines stably expressing human D2S, 5-HT2A or H1 receptors and human embryonic kidney 293 (HEK293) cell lines stably expressing human 5-HT1A or 5-HT7(a) receptors were in-house available, whereas CHO-K1 cell lines stably expressing human D1 or D3 receptors (Perkin Elmer, Waltham, MA, USA) and Chem-1 cell line stably expressing human M1 receptor (Millipore, Merck KGaA, Darmstadt, Germany) were commercially available. Experimental conditions for binding assays at D1, D2, D3, 5-HT1A and 5-HT2A receptors have been previously reported. 0.7 nM [^3H]-SCH23390, 2 nM [^3H]-SB269970 (5-HT7), 2 nM [^3H]-Pyrilamine (H1) and 2 nM [^3H]-Pirenzepine (M1) were employed as radioligands. […] Affinity (equilibrium dissociation constant (Ki) and pKi (−logKi)) values were calculated as previously reported. Affinity values of reference compounds that were assayed in parallel to D2AAK4 as internal controls in the binding assays are given in Supplementary Figure S1 (legend).

mice [4] = assay: Amphetamine-induced hyperactivity; conditions: 100 mg/kg i.p. coadministered with amphetamine 5 mg/kg s.c.; p < 0.001 vs amphetamine-treated group
human D3 receptor = human D3 receptor (Homo sapiens, UniProt P35462); assay: Radioligand binding assay at human D3 receptor; conditions: mean ± SEM, two independent experiments in duplicate; read-out: pKi hD3 (converted)
Procedure: as §1

mice [5] = assay: Motor coordination, rotarod and chimney tests; type: in vivo; conditions: 100 mg/kg i.p., 60 min after injection
Procedure: Motor coordination has been assessed in mice using the rotarod test and the chimney test using the same procedure as described in our earlier work. […] D2AAK1 was previously studied using the same dose so we decided to select the dose of 100 mg/kg.

human M1 receptor = molecular target: T2, human M1 receptor (Homo sapiens, UniProt P11229); assay: Radioligand binding assay at human M1 receptor; conditions: mean ± SEM; full displacement not achieved at maximum concentration, pKi could be not accurately estimated; read-out: pKi hM1 (converted)
T2 sequence (P11229 1-460): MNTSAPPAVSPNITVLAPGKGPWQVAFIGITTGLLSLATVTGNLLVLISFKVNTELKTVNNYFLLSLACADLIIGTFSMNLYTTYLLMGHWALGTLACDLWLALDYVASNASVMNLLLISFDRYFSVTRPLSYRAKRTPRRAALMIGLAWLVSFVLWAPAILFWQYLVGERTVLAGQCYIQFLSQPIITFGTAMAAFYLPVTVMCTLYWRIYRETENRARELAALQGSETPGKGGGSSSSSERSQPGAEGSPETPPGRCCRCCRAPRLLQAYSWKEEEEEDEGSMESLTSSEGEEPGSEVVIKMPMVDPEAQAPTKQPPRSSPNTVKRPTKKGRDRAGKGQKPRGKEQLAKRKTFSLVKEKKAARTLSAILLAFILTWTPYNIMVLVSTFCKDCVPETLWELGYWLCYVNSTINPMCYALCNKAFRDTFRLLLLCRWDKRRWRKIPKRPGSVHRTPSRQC
Procedure: as §1

human 5-HT2A receptor [6] = molecular target: T3, human 5-HT2A receptor (Homo sapiens, UniProt P28223); assay: Radioligand binding assay at human 5-HT2A receptor
T3 construct: expressed in transfected cells
Procedure: as §1

human 5-HT7(a) receptor = molecular target: T4, human 5-HT7(a) receptor (Homo sapiens, UniProt P34969); assay: Radioligand binding assay at human 5-HT7 receptor; conditions: mean ± SEM; full displacement not achieved at maximum concentration, pKi could be not accurately estimated; read-out: pKi h5-HT7 (converted)
T4 construct: expressed in transfected cells
Procedure: as §1

human H1 receptor = molecular target: T5, human H1 receptor (Homo sapiens, UniProt P35367); assay: Radioligand binding assay at human H1 receptor; conditions: mean ± SEM, two independent experiments in duplicate; read-out: pKi hH1 (converted)
T5 construct: expressed in transfected cells
Procedure: as §1

human 5-HT2A receptor [7] = molecular target: T3, human 5-HT2A receptor; assay: Functional assay of inositol phosphate (IP) production at 5-HT2A receptors (CHO-K1 cells); type: cell-based
human 5-HT1A receptor = molecular target: T6, human 5-HT1A receptor (Homo sapiens, UniProt P08908); assay: Radioligand binding assay at human 5-HT1A receptor; conditions: mean ± SEM, read-out: % inh. at 10 μM (5-HT1A)
T6 construct: expressed in transfected cells
T6 sequence (P08908 1-422): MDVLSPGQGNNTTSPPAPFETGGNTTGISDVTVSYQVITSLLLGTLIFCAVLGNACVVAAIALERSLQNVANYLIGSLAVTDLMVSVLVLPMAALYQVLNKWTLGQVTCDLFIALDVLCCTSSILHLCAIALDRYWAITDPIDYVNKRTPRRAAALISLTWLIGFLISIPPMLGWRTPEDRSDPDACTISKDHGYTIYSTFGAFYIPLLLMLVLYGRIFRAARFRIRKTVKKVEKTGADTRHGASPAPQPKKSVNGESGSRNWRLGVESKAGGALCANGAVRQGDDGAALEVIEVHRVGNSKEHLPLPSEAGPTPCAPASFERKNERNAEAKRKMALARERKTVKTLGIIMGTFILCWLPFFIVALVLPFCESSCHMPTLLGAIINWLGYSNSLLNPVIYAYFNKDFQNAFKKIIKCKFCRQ
Procedure: as §1

mice [8] = assay: Elevated plus maze (EPM) test; type: in vivo; conditions: 100 mg/kg i.p., 30 and 60 min after administration
Procedure: The EPM apparatus was used as described previously. The EPM procedure was described in our previous papers. The percentage (%) of time spent in the open arms and % of entries into the open arms were calculated. Moreover, the number of entries into the closed arms was recorded as the motor activity indicator of tested mice.
To determine D2AAK4 acute effect on anxiety-like behavior, the studied compound (100 mg/kg; i.p.) (n = 8) or vehicle (i.p.) (n = 8) was injected 30 and 60 min before the EPM test.

mice [9] = assay: Passive avoidance (PA) task, memory consolidation; type: in vivo; conditions: 100 mg/kg i.p. immediately after pretest, retest 24 h later; p < 0.0001 vs vehicle
Procedure: The PA apparatus was described previously. The PA procedure was also previously described.
Mice received D2AAK4 immediately after being pretested on Day 1, and then they were retested (without injections) 24 h later. The changes in PA performance were calculated as the difference between retention and training latencies (i.e., latency index (IL)). More specifically, IL was calculated for each animal and presented as the ratio (as described in [12, 29]).

human 5-HT2A receptor [10] = molecular target: T3, human 5-HT2A receptor; conditions: atypical antipsychotics, literature values, no reference given; cited from earlier work

T1 sequence (P14416 1-414 isoform P14416-2): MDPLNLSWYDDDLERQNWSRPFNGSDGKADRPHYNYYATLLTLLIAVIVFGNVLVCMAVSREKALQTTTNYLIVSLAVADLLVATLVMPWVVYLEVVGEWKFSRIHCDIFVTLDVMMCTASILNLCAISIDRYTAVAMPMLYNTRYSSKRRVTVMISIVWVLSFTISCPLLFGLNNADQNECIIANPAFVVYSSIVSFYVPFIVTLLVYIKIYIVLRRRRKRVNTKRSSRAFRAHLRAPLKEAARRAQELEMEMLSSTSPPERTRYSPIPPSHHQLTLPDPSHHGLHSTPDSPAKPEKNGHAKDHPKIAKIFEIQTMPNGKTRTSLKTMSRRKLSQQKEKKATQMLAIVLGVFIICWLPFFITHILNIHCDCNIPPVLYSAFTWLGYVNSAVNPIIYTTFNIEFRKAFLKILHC
T3 sequence (P28223 whole entry): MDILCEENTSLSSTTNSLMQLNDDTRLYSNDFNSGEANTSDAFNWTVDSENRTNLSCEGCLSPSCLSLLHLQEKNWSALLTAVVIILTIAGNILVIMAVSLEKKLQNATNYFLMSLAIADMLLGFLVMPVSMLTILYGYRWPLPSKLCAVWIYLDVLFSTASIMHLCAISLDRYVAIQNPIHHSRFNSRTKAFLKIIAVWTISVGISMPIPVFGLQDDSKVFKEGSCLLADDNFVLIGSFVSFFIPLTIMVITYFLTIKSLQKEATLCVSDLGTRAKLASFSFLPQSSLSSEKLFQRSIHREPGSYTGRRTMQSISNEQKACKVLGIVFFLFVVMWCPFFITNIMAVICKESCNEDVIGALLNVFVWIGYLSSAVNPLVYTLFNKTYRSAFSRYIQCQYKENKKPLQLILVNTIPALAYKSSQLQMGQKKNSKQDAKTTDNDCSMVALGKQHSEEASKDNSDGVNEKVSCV
Sequence of human D1 receptor (P21728 whole entry): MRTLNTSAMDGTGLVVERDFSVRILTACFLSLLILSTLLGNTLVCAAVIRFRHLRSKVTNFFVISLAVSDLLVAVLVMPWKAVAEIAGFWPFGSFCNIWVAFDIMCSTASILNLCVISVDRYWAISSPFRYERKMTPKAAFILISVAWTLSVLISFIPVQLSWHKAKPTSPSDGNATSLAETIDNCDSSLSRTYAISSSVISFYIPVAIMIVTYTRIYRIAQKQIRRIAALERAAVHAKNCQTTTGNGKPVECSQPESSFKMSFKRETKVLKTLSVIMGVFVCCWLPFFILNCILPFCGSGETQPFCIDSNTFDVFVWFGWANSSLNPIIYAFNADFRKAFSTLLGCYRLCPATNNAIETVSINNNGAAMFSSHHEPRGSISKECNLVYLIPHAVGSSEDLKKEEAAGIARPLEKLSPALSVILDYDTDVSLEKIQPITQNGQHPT
T5 sequence (P35367 whole entry): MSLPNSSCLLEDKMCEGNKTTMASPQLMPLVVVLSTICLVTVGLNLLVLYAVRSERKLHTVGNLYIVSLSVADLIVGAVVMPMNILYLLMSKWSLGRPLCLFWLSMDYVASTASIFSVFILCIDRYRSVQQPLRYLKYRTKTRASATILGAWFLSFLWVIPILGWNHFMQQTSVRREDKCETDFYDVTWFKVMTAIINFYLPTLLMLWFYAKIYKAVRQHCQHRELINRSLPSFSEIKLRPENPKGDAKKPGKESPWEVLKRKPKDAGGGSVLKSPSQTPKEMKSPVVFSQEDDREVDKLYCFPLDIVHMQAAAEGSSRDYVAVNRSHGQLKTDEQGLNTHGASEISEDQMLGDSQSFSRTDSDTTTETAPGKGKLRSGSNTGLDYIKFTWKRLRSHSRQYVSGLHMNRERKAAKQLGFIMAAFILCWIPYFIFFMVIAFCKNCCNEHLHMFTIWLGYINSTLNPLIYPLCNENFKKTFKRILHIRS
Sequence of human D3 receptor (P35462 whole entry): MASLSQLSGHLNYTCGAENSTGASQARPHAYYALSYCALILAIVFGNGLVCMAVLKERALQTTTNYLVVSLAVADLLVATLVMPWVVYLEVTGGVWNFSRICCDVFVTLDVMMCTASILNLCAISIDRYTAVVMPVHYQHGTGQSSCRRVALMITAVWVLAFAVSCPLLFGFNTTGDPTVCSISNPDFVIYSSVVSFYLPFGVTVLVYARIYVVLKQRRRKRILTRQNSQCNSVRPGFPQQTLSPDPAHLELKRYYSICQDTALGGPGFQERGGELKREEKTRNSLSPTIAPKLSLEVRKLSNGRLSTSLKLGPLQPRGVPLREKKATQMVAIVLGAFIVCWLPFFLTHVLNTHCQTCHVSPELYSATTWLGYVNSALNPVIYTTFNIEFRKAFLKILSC
T4 sequence (P34969 1-445 isoform P34969-2): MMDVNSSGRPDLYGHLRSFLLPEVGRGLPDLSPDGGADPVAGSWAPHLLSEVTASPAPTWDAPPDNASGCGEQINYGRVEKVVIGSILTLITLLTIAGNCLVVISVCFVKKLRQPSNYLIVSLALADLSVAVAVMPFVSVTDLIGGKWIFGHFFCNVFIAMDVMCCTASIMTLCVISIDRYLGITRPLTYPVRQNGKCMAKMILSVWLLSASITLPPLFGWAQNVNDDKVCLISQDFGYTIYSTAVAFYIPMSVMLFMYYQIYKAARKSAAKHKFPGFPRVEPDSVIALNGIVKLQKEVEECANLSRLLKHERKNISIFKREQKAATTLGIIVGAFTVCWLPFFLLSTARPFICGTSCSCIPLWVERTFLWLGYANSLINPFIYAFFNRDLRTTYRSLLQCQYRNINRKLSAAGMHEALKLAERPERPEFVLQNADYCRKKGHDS

Structure (SMILES): O=C(Nc1ccccc1O)C1CCN(CCCn2c(=O)[nH]c3ccccc32)CC1 [D2AAK4, N-(2-hydroxyphenyl)-1-[3-(2-oxo-2,3-dihydro-1H-benzimidazol-1-yl)propyl]piperidine-4-carboxamide]
- Ki (human D1 receptor): 2.51 µM
- % inh. at 10 µM (inhibition of dopamine response), hD2 (human D2S receptor [1]): 12.1 ± 6.0% and 12%
- % inh. at 100 µM (inhibition of dopamine response), hD2 (human D2S receptor [2]; 100 µM compound (maximal assayed) versus 10 µM dopamine, cAMP assay): 44%
- inhibition at 100 µM (human D2S receptor [2]; CHO-K1, read-out: % inh. at 100 µM (inhibition of dopamine response), hD2, 100 µM compound (maximal assayed) versus 10 µM dopamine, cAMP assay): 44.1 ± 1.5%
- Ki (human D2S receptor [3]): 1.86 µM
- amphetamine-induced hyperactivity (mice [4]): decreased amphetamine-induced hyperactivity
- Ki (human D3 receptor): 9.33 µM
- motor coordination in rotarod and chimney tests (mice [5]): does not impair mouse motor coordination
- Ki (human M1 receptor): 3.89 µM
- 5-HT2A/D2 affinity ratio (Ki D2/Ki 5-HT2A), times higher affinity for 5-HT2A (human 5-HT2A receptor [6]; 5-HT2A versus D2 receptor): 3.67 times
- Ki (human 5-HT2A receptor [6]; mean ± SEM, three independent experiments in duplicate, read-out: pKi h5-HT2A (converted)): 0.49 µM
- Ki (human 5-HT7(a) receptor): 6.61 µM
- Ki (human H1 receptor): 3.89 µM
- agonist efficacy at 5-HT2A (IP signaling) (human 5-HT2A receptor [7]; 0.1 nM to 100 µM): unable to promote IP signaling
- inhibition at 10 µM (human 5-HT2A receptor [7]; CHO-K1, read-out: % inh. at 10 µM (inhibition of 5-HT response), h5-HT2A, 10 µM compound versus 1 µM 5-HT, IP assay): 97.4 ± 1.6%
- IC50 (human 5-HT2A receptor [7]; versus 1 µM 5-HT-stimulated IP production, read-out: IC50, 5-HT2A antagonist): 0.714 µM
- inhibition at 10 µM (human 5-HT1A receptor): 9.7 ± 0.4%
- % of the time spent in the open arms (mice [8]; p < 0.0001): decrease
- % of the open arm entries (mice [8]; p = 0.0272 and p = 0.0092): decrease
- latency index (IL) values, memory consolidation (mice [9]): statistically significant increase

Structure (SMILES): Cc1nc2n(c(=O)c1CCN1CCC(c3noc4cc(F)ccc34)CC1)CCCC2O (stereo not shown) [paliperidone]
- 5-HT2A/D2 affinity ratio (human 5-HT2A receptor [10]): 2.16

Structure (SMILES): O=C1Cc2cc(CCN3CCN(c4nsc5ccccc45)CC3)c(Cl)cc2N1 [ziprasidone]
- 5-HT2A/D2 affinity ratio (human 5-HT2A receptor [10]): ~ 5.60
